From paper PMC8838534, “Unprecedented Epimerization of an Azithromycin Analogue: Synthesis, Structure and Biological Activity of 2′-Dehydroxy-5″-Epi-Azithromycin” (Molecules, 2022) come the findings set out here.

Data set [1] relates to Staphylococcus aureus (ATCC13709). Description: Antimicrobial activity, CLSI broth microdilution MIC. The following applies: read-out: MIC S. aureus. Format: cell-based. From the text:
(§1) The Clinical and Laboratory Standards (CLSI) recommended procedure (Document M7-[…], Methods for Dilution Susceptibility Tests for Bacteria that Grow Aerobically) by broth microdilution was used to determine the antimicrobial activity of compounds against Escherichia coli (ATCC25922), Staphylococcus aureus (ATCC13709), Streptococcus pneumoniae (ATCC49619), Streptococcus pyogenes (ATCC700294), Moraxella catarrhalis (ATCC23246) and Haemophilus influenzae (ATCC49247). The minimum inhibitory concentration (MIC) is determined as the lowest concentration of compound that inhibited visible growth.
(In general: Dilution methods test growth across graded concentrations, often in twofold steps.)

The test system of data set [2] is Haemophilus influenzae (ATCC49247). The description is as above. Particulars: read-out: MIC H. influenzae. It counts as cell-based.
Description: as §1

The subject of data set [3] is Escherichia coli (ATCC25922). The data set is described as above. Format: cell-based.
Description: as §1

In data set [4] the test system is Streptococcus pneumoniae (ATCC49619). The data set is described as above. Format: cell-based. Particulars: read-out: MIC S. penumoniae.
Description: as §1

The subject of data set [5] is Moraxella catarrhalis (ATCC23246). Described as above. Format: cell-based.
Description: as §1

The subject of data set [6] is Streptococcus pyogenes (ATCC700294). Described as above. Format: cell-based. Particulars: read-out: MIC S. pyogenes.
Description: as §1

Data set [7] deals with neutrophil accumulation in BALF of cigarette-smoke-challenged mice. Description: Cigarette-smoke-induced pulmonary inflammation. Format: in vivo, mouse. Particulars: oral dosing 2 h prior smoke challenge on each smoke day.
The next data set in a line: Pharmacokinetics in rat. Format: in vivo, Sprague Dawley rats. The protocol:
(§2) Pharmacokinetic profiles were determined in male Balb/c mice and CD Sprague-Dawley rats (Charles River Laboratories, Germany), following single oral (p.o.) and single intravenous (i.v.) bolus administration. The compound was administered at a dose of […] i.v. and 10 mg/kg p.o. Blood was obtained by serial blood sampling from the tail vein over a range of time points up to 30 h postdose. Samples were extracted by protein precipitation and subjected to quantitative analysis by LC-MS/MS using compound-specific mass transitions. Drug concentration−time profiles were generated and noncompartmental PK analysis used to generate estimates of half-life, clearance, volume of distribution, and oral bioavailability.

A short description of the next data set: Pharmacokinetics in dog. Format: in vivo, Beagle dogs.
Data set [8] can be described thus: Pharmacokinetics in mouse. Format: in vivo, Balb/c mice. As to the method:
as §2

Data set [9] has as its target T1, recombinant human CYP2C19 (Homo sapiens, UniProt P33261).
T1 construct: purchased Cypex
Description: In vitro cytochrome inhibition. Particulars: recombinant human CYP, fluorescent probe; read-out: IC50 inhibition of cytochrome 2C19. It counts as in vitro ADME. As to the method:
(§3) Test compounds were incubated using a concentration range from 0.1 to 100 µM with recombinant human CYP1A2, 2C9, 2C19, 2D6 and 3A4 (Cypex). The compounds were preincubated at 37 °C for 5 or 10 min with the CYP enzyme isoforms, in the presence of 50 mM phosphate buffer (pH 7.4) and fluorescent probes. The incubations were started by addition of a cofactor solution containing NADP, glucose 6-phosphate and glucose 6-phosphate dehydrogenase. The plates were incubated for 10 min at 37 °C reading the fluorescence signal on a plate reader throughout. The fluorescence data were then used to calculate the IC50 values for each compound.

Another data set deals with T2, recombinant human CYP2D6 (Homo sapiens, UniProt P10635).
T2 construct: purchased Cypex
Description: In vitro cytochrome inhibition. It counts as in vitro ADME. Particulars: recombinant human CYP, fluorescent probe; read-out: IC50 inhibition of cytochrome 2D6. The protocol: as §3

In another data set the target is T3, recombinant human CYP1A2 (Homo sapiens, UniProt P05177).
T3 construct: purchased Cypex
T3 sequence (P05177 1-516): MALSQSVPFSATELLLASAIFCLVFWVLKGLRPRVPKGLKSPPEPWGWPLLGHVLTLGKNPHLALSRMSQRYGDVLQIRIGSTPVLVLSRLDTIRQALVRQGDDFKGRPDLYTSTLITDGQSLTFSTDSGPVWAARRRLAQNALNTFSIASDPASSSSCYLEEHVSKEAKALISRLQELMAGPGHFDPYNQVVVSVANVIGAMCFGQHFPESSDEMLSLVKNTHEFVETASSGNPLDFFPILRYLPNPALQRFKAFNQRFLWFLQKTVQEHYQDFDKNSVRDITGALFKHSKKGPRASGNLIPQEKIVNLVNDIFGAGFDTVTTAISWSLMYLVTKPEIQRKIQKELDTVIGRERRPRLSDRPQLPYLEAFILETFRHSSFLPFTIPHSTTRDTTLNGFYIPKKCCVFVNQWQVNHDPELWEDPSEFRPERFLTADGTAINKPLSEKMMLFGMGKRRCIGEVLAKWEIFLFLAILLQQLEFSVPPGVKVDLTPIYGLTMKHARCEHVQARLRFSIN
Kind of data set: In vitro cytochrome inhibition. It counts as in vitro ADME. The following applies: recombinant human CYP, fluorescent probe; read-out: IC50 inhibition of cytochrome 1A2. The protocol:
as §3

Another data set addresses T4, recombinant human CYP2C9 (Homo sapiens, UniProt P11712).
T4 construct: purchased Cypex
Description: In vitro cytochrome inhibition. It counts as in vitro ADME. The following applies: recombinant human CYP, fluorescent probe; read-out: IC50 inhibition of cytochrome 2C9. The protocol:
as §3

A further data set addresses T5, recombinant human CYP3A4 (Homo sapiens, UniProt P08684).
T5 construct: purchased Cypex
Description: In vitro cytochrome inhibition. It counts as in vitro ADME. Particulars: recombinant human CYP, fluorescent probe; read-out: IC50 inhibition of cytochrome 3A4. The protocol: as §3

Data set [10] deals with neutrophil accumulation in BALF of LPS-challenged BALB/cJ mice. Kind of data set: LPS-induced pulmonary neutrophilia. Format: in vivo, mouse (BALB/cJ). Particulars: 200 mg/kg intraperitoneally 2 h prior LPS, BALF 24 h after LPS. As to the method:
Vehicle, azithromycin, and compound 4 were administered intraperitoneally at a dose of 200 mg/kg (b.w.) to 10-week-old male BALB/cJ mice (Charles River, Lyon, France) 2 h before intranasal challenge with 2 μg of LPS from E. coli. Then, 24 h after LPS application animals were euthanized and bronchoalveolar lavage was performed. Total number of cells in BALF was counted with a hematological analyzer (Sysmex SF 3000, Sysmex Corp., Kobe, Japan). Percentages of neutrophils were determined by morphological examination of at least 200 cells on smears prepared by cytocentrifugation (Cytospin-3, Thermo Fisher Scientific Inc, Waltham, MA, USA) and stained with Kwik-Diff staining set (Thermo Fisher Scientific Inc., USA).
All values are presented as means ± S.E.M. To define statistically significant differences in cell numbers among vehicle-treated and macrolide-treated mice the data were subjected to one-way ANOVA followed by Dunnett’s Multiple Comparison Test using GraphPad Prism version 5.00 for Windows (GraphPad Software, San Diego, CA, USA). The level of significance was set at p < 0.05 in all cases.

Values after ≈ are worked out from the molar mass of the structure shown. Values joined by “and” are separate entries in the source; they are usually repeats but may differ in a detail not shown here. Identical values can stand only once.

T1 sequence (P33261 whole entry): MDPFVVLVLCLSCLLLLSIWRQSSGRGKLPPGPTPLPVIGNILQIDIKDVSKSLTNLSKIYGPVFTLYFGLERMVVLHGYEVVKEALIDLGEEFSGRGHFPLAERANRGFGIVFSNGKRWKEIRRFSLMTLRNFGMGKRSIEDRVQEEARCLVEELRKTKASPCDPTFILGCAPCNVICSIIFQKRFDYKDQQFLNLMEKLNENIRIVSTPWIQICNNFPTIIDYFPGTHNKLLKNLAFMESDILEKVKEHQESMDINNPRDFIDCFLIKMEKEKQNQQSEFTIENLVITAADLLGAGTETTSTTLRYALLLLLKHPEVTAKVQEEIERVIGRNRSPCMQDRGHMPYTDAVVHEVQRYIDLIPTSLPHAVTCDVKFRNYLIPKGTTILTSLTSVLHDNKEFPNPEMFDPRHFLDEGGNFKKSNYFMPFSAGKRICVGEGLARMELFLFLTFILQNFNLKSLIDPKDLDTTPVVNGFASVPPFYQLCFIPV
T5 sequence (P08684 whole entry): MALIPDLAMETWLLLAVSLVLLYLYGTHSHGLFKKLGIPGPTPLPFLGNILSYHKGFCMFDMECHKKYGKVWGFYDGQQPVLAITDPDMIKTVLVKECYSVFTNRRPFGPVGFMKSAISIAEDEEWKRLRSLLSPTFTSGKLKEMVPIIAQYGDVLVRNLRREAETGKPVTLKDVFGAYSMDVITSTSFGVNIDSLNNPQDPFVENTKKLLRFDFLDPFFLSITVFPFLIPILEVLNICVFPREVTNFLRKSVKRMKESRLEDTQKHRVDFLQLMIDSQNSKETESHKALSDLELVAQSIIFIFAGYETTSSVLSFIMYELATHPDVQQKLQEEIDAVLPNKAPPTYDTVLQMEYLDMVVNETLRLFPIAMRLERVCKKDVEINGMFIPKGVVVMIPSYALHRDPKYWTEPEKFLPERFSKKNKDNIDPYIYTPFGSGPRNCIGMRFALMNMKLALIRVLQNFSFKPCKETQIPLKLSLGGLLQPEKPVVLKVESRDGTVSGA
T2 sequence (P10635 whole entry): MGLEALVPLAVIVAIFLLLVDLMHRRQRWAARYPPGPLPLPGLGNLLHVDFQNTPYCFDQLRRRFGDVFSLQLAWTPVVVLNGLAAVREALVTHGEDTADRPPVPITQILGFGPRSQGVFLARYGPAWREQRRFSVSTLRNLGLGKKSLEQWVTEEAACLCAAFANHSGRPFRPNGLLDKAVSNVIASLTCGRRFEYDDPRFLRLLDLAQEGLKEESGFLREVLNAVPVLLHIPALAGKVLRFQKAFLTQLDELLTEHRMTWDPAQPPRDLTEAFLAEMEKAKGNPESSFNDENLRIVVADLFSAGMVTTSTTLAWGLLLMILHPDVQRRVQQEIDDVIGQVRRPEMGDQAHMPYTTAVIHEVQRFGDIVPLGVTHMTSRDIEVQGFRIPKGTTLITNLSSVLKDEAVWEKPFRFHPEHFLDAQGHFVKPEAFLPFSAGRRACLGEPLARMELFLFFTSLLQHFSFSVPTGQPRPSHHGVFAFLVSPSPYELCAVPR
T4 sequence (P11712 whole entry): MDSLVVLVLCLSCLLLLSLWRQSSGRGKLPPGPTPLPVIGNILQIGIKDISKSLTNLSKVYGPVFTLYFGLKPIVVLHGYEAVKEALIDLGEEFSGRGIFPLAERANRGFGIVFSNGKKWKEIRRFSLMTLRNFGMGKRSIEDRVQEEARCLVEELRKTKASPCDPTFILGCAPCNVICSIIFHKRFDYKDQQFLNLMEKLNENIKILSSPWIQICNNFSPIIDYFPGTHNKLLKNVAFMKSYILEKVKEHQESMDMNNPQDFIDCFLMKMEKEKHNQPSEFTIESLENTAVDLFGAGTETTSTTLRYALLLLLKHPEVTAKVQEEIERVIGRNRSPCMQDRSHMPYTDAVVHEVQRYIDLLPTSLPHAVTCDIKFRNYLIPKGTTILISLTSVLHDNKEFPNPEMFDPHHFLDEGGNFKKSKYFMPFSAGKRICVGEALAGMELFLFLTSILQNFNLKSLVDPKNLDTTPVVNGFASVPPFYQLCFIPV

Regarding `CC[C@H]1OC(=O)[C@H](C)[C@@H](O[C@H]2C[C@@](C)(OC)[C@@H](O)[C@H](C)O2)[C@H](C)[C@@H](O[C@H]2C[C@@H](N(C)C)C[C@@H](C)O2)[C@](C)(O)C[C@@H](C)CN(C)[C@H](C)[C@@H](O)[C@]1(C)O` [compound 3, 2 ′-dehydroxy azithromycin], the MIC in data set [1] is more than 64 µg/mL; in data set [2], more than 64 µg/mL; in [3] it was more than 64 µg/mL; in [4] it was 32 µg/mL (≈ 43.7 µM); in data set [5], 16 µg/mL (≈ 21.8 µM); in [6], 64 µg/mL (≈ 87.3 µM).

With `CC[C@H]1OC(=O)[C@H](C)[C@@H](O[C@H]2C[C@@](C)(OC)[C@@H](O)[C@H](C)O2)[C@H](C)[C@@H](O[C@@H]2O[C@H](C)C[C@H](N(C)C)[C@H]2O)[C@](C)(O)C[C@@H](C)CN(C)[C@H](C)[C@@H](O)[C@]1(C)O` [AZM, azithromycin], the “Neutrophil accumulation in BALF after cigarette-smoke challenge” value in [7] is “dose-dependently inhibited the accumulation of neutrophils”. The MIC in data set [1] was 0.5 µg/mL (≈ 0.668 µM); in data set [2] it was 2 µg/mL (≈ 2.67 µM); in data set [3] it was 2 µg/mL (≈ 2.67 µM); in data set [4] it was less than 0.125 µg/mL; in data set [5], less than 0.125 µg/mL; in [6], less than 0.125 µg/mL.

By half-life is commonly meant how long it takes for the measured level to halve. As a reminder, the clearance is a measure of how efficiently the substance is removed, as volume per time. A word on the IC50: it is the concentration that gives 50% inhibition. Turning to `CC[C@H]1OC(=O)[C@H](C)[C@@H](O[C@H]2C[C@@](C)(OC)[C@@H](O)[C@@H](C)O2)[C@H](C)[C@@H](O[C@H]2C[C@@H](N(C)C)C[C@@H](C)O2)[C@](C)(O)C[C@@H](C)CN(C)[C@H](C)[C@@H](O)[C@]1(C)O` [compound 4, 2′-dehydroxy-5″-epi-azithromycin], in [7], the “Neutrophil accumulation in BALF after cigarette-smoke challenge” value is “dose-dependently inhibited the accumulation of neutrophils”. Moreover, the MIC in [1], in data set [2], in data set [3], in data set [4], in data set [5] and in data set [6] was more than 64 µg/mL each time. In addition, the “systemic clearance as % of liver blood flow” value in the data set “Pharmacokinetics in rat” was ~17.1 % of liver blood flow; in “Pharmacokinetics in dog” it was ~18 % of liver blood flow; in data set [8], “ca. 4.6 % of liver blood flow”. Further, the half-life was approximately 15 h in “Pharmacokinetics in rat” (Sprague-Dawley, whole blood); approximately 21 h in the data set “Pharmacokinetics in dog” (beagle, in vivo); approximately 11 h in data set [8] (male, Balb/c, whole blood). In addition, the Vd in “Pharmacokinetics in rat” (Sprague-Dawley, whole blood, intravenous, 2 mg/mg, read-out: Vss) worked out at 11.7 ± 1.9 L/kg; in “Pharmacokinetics in dog” (beagle, in vivo, intravenous, read-out: Vss) it was 6.9 ± 2 L/kg; in data set [8] (male, Balb/c, whole blood, intravenous, 2 mg/mg, read-out: Vss) it was 2 ± 0.8 L/kg. The clearance worked out at 14.5 ± 8.5 mL/min/kg in the data set “Pharmacokinetics in rat” (Sprague-Dawley, whole blood, iv, 2 mg/mg, blood); 5.5 ± 0.9 mL/min/kg in “Pharmacokinetics in dog” (beagle, in vivo, intravenous); 4.1 ± 1.1 mL/min/kg in data set [8] (male, Balb/c, whole blood, iv, 2 mg/mg, blood). Further, the “Oral F” value is 62% and 62 ± 10% in “Pharmacokinetics in dog”; 12% and 12.4 ± 4.2% in data set [8] (10 mg/kg p.o., 10 mg/kg). Further, the IC50 (in data set [9]; on recombinant human CYP2D6; on recombinant human CYP1A2; on recombinant human CYP2C9; at recombinant human CYP3A4) was more than 33 µM each time. In addition, the “Neutrophil accumulation in BALF after intranasal LPS challenge” value in [10] was “inhibited neutrophil accumulation”.
